Some test systems named below: KM12 colon; LOX IMVI melanoma; MALME-3M melanoma; NCI-H460 lung; SK-MEL-28 melanoma; SK-OV-3 ovarian; SR leukemia; UACC-257 melanoma; UO-31 renal; NCI/ADR-RES ovarian.
Assay in all cases: NCI anticancer screen, dose series, 48 h

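Step 1: Grow cells in 96-well plates. Step 2: Expose to compound for 48 hours at 5 concentrations. Step 3: Interpolate endpoints linearly; if unreached, use highest concentration. GI50 marks 50% less growth. The concentration for full growth arrest is given as TGI.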

Consider `O/N=C1\C(=C\c2ccc3c(c2)OCCO3)CCCC1C(NO)c1ccc2c(c1)OCCO2` (configuration not stated), for which the TGI with KM12 colon was 52 µM; in the assay on LOX IMVI melanoma, 29.1 µM; in the assay with MALME-3M melanoma, 63.7 µM; in the assay on NCI-H460 lung, 51.3 µM; in the assay with SK-MEL-28 melanoma, 32.5 µM; in the assay with SK-OV-3 ovarian, over 100 µM. Further, the TGI in the assay with SR leukemia was found to be 55.5 µM; in the assay on UACC-257 melanoma, 49.2 µM; in the assay with UO-31 renal, 68.7 µM.

Consider `CC(=O)[O][Hg][c]1s[c]([Hg][O]C(C)=O)[c]([Hg][O]C(C)=O)[c]1[Hg][O]C(C)=O`, for which the GI50 in the assay on KM12 colon was 22.6 µM; in the assay with MALME-3M melanoma it was 3.16 µM; with NCI-H460 lung, 2.35 µM; with SK-MEL-28 melanoma, 1.18 µM; with SK-OV-3 ovarian, 2.34 µM; in the assay on SR leukemia, 2.27 µM. For the same compound, the GI50 in the assay on UO-31 renal was 4.61 µM. Further, the TGI in the assay on KM12 colon was over 100 µM; in the assay with MALME-3M melanoma it was 17.2 µM; in the assay with NCI-H460 lung, over 100 µM; in the assay with SK-MEL-28 melanoma it was 5.52 µM; in the assay with SK-OV-3 ovarian, 9.2 µM; in the assay with SR leukemia, over 100 µM.

For `CC[C@@H](C(=O)[C@@H](C)[C@@H](O)[C@H](C)[C@@H]1O[C@@H]([C@@H](CC)C(=O)O)CC[C@@H]1C)[C@H]1O[C@]2(C=C[C@@H](O)[C@]3(CC[C@@](C)([C@H]4CC[C@](O)(CC)[C@H](C)O4)O3)O2)[C@H](C)C[C@@H]1C`, the GI50 in the assay on KM12 colon is 1.18 µM; in the assay on LOX IMVI melanoma, 0.596 µM; with MALME-3M melanoma, 0.416 µM; in the assay on NCI-H460 lung, 0.441 µM; in the assay with NCI/ADR-RES ovarian, 1.32 µM; in the assay on SK-MEL-28 melanoma, 1.14 µM. Moreover, the GI50 in the assay on SK-OV-3 ovarian is 3.6 µM; in the assay on UACC-257 melanoma, 0.461 µM; in the assay with UO-31 renal, 1.05 µM. Besides, the TGI with KM12 colon was 15.7 µM; in the assay with LOX IMVI melanoma, 12.9 µM; with MALME-3M melanoma it was 1.81 µM; in the assay with NCI-H460 lung it was 11.9 µM; in the assay on NCI/ADR-RES ovarian it was 51.4 µM; with SK-MEL-28 melanoma it was 2.38 µM. The values for the TGI with SK-OV-3 ovarian, in the assay on UACC-257 melanoma and with UO-31 renal were 48 µM, 6.79 µM and 25.5 µM, respectively.

Consider `CC1=CC(=O)N2C(OC[C@@H]2c2ccccc2)O1` (some centres not stated), for which the TGI in the assay with KM12 colon, with MALME-3M melanoma, in the assay on NCI-H460 lung, in the assay on SK-MEL-28 melanoma, in the assay on SK-OV-3 ovarian and in the assay with SR leukemia was over 100 µM each time. Further, the TGI in the assay on UACC-257 melanoma and in the assay on UO-31 renal was over 100 µM throughout.

Take `N#C/C(=C1\OC(N)=C(c2ccc(Cl)cc2)C1=O)c1ccc(Cl)cc1`: the TGI was 31.4 µM with KM12 colon; 31.4 µM with LOX IMVI melanoma; 34.3 µM in the assay on MALME-3M melanoma; 34 µM with NCI-H460 lung; 67.7 µM with SK-MEL-28 melanoma; 89.1 µM in the assay on SK-OV-3 ovarian. The TGI in the assay with SR leukemia amounted to 54.7 µM; in the assay with UACC-257 melanoma it was 29 µM; in the assay with UO-31 renal it was 29.8 µM.

As to `Cc1ccc(C)c(NC(=O)C(=O)Nn2c(=S)[nH]c3ccccc3c2=O)c1`, the TGI with KM12 colon, in the assay with LOX IMVI melanoma, with MALME-3M melanoma, in the assay on NCI-H460 lung, with SK-MEL-28 melanoma and in the assay on SK-OV-3 ovarian was over 100 µM in each case. Moreover, the TGI in the assay on SR leukemia, in the assay with UACC-257 melanoma and in the assay on UO-31 renal was over 100 µM throughout.

Turning to `CC(=O)/C(=C/N1CCN(C(=O)c2ccco2)C1=S)C(=O)c1ccccc1`, the GI50 in the assay with KM12 colon is 8.4 µM; with LOX IMVI melanoma, 8.91 µM; with MALME-3M melanoma, 9.28 µM; with NCI-H460 lung, 7.04 µM; in the assay with SK-MEL-28 melanoma it was 28 µM; in the assay on SK-OV-3 ovarian it was 17.5 µM. Also, the GI50 in the assay on SR leukemia is 2.71 µM; in the assay on UO-31 renal, 8.8 µM. For the same compound, the TGI is over 50 µM in the assay on KM12 colon; 20.4 µM with LOX IMVI melanoma; 46.7 µM in the assay with MALME-3M melanoma; 22.9 µM in the assay with NCI-H460 lung; over 50 µM in the assay on SK-MEL-28 melanoma; over 50 µM in the assay on SK-OV-3 ovarian. For the same compound, the TGI in the assay with SR leukemia was determined as 13.4 µM; in the assay with UO-31 renal, 18.1 µM.

As to `NC1=Nc2ccccc2Sc2ccccc21`, the TGI in the assay with KM12 colon, in the assay with LOX IMVI melanoma, in the assay on MALME-3M melanoma, in the assay on NCI-H460 lung, in the assay with SK-MEL-28 melanoma and in the assay on SK-OV-3 ovarian was over 100 µM throughout. Besides, the TGI in the assay with SR leukemia, in the assay on UACC-257 melanoma and in the assay on UO-31 renal was over 100 µM throughout.

With `N#Cc1cc2c(cc1Cl)SC(=Nc1ccccc1)N(S(=O)(=O)c1ccc(Br)s1)S2(=O)=O`, the GI50 was 18.7 µM in the assay with KM12 colon; 18.8 µM with LOX IMVI melanoma; 23.1 µM with NCI-H460 lung; 19.8 µM in the assay on NCI/ADR-RES ovarian; 19.5 µM in the assay on SK-MEL-28 melanoma; 39.6 µM with SK-OV-3 ovarian. The GI50 with UO-31 renal is 15.1 µM. For the same compound, the TGI is 35.7 µM in the assay with KM12 colon; 43.6 µM in the assay on LOX IMVI melanoma; 53 µM in the assay with NCI-H460 lung; 43.8 µM in the assay on NCI/ADR-RES ovarian; 44.1 µM with SK-MEL-28 melanoma; over 100 µM in the assay on SK-OV-3 ovarian. In addition, in the assay on UO-31 renal, the TGI was 36.4 µM.

Regarding `O=C1C(OC(=O)c2ccccc2)=C(c2ccc(O)cc2)C(=O)C(OC(=O)c2ccccc2)=C1c1ccc(O)cc1`, the TGI in the assay on KM12 colon, in the assay on LOX IMVI melanoma, with MALME-3M melanoma, with NCI-H460 lung, in the assay with NCI/ADR-RES ovarian and in the assay on SK-MEL-28 melanoma was over 100 µM in each case. Besides, the TGI with SK-OV-3 ovarian, in the assay on UACC-257 melanoma and in the assay with UO-31 renal was over 100 µM throughout.

On to `C#C[C@@H](CCCC)OC(=O)N[C@H](C)c1ccccc1`, for which the TGI in the assay with KM12 colon, in the assay on LOX IMVI melanoma, in the assay with NCI-H460 lung, in the assay on SK-MEL-28 melanoma, with SK-OV-3 ovarian and in the assay with SR leukemia was over 100 µM throughout. Also, the TGI in the assay with UACC-257 melanoma is over 100 µM; in the assay with UO-31 renal, 65.4 µM.

These data come from PubChem BioAssay (NCI).
